Test results taken from US6867207B2, “IL-5 inhibiting 6-azauracil derivatives” (Janssen Pharmaceutica N.V., priority 1997, dated 2005).

Each compound was assayed on IL-5 production (assay: In vitro inhibition of IL-5 production in human blood (phytohemagglutinin-stimulated whole blood, ELISA)). Details: test dose 1×10^−6 M, 48 hours.
Format: cell-based
Procedure: In Vitro Inhibition of IL-5 Production in Human Blood
Human Whole Blood Stimulation
Peripheral blood from healthy male donors was drawn into heparinized syringes (12.5 U heparin/ml). Blood samples were three-fold diluted in RMPI 1640 medium (Life Technologies, Belgium) supplemented with 2 mM L-glutamine, 100 U/ml penicillin and 100 μg/ml streptomycin, and 300 μl fractions were distributed in 24-well multidisc plates. Blood samples were preincubated (60 minutes at 37° C.) in a humidified 6% CO2-atmosphere with 100 μl of drug solvent (final concentration 0.02% dimethylsulfoxide in RPMI 1640) or with 100 μl of an appropriate dose of test compound before being stimulated by the addition of 100 μl of phytohemagglutinin HA17 (Murex, UK) at a final concentration of 2 μg/ml. After 48 hours, cell-free supernatant fluids were collected by centrifugation and stored at −70° C. until tested for the presence of IL-5.
IL-5 measurements were conducted as described in Van Wauwe et al. (1996, Inflamm Res, 45, 357-363) on page 358 using ELISA.
Table 9 lists the percentage inhibition of IL-5 production (column “% inh”) at a test dose of 1×10^−6 M, or in case the percentage inhibition is marked with an “*” 1×10^−5 M, the compounds of the present invention.
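Also: values marked with an asterisk were tested at 10 µM and unmarked values at 1 µM.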

Compound	% inh. (percentage inhibition of IL-5 production) [%]
COC(C)c1sc(C(c2ccc(Cl)cc2)c2c(Cl)cc(-n3ncc(=O)[nH]c3=O)cc2Cl)nc1-c1ccccc1 (mixture of isomers) [Comp 315]	93
CN1CCCC(c2nnc(C(c3ccc(Cl)cc3)c3c(Cl)cc(-n4ncc(=O)[nH]c4=O)cc3Cl)o2)C1 (mixture of isomers) [Compound 196]	35
Cc1nc(C(c2ccc(Cl)cc2)c2c(Cl)cc(-n3ncc(=O)[nH]c3=O)cc2Cl)sc1C (racemic) [Comp 16]	89
CC(c1ccc(Cl)cc1)(c1nc(-c2ccccc2)c(-c2ccccc2)s1)c1c(Cl)cc(-n2ncc(=O)[nH]c2=O)cc1Cl (racemic) [Comp 18]	88
O=c1cnn(-c2cc(Cl)c(C(c3ccc(Cl)cc3)c3nc(-c4cccc(Cl)c4)cs3)c(Cl)c2)c(=O)[nH]1 (racemic) [Comp 19]	83
O=c1cnn(-c2cc(Cl)c(C(c3ccc(Cl)cc3)c3nc(-c4cccc(C(F)(F)F)c4)cs3)c(Cl)c2)c(=O)[nH]1 (racemic) [Comp 20]	70
O=c1cnn(-c2cc(Cl)c(C(c3ccc(Cl)cc3)c3nc(-c4cccc(F)c4)cs3)c(Cl)c2)c(=O)[nH]1 (racemic) [Comp 21]	91
Cc1cccc(-c2csc(C(c3ccc(Cl)cc3)c3c(Cl)cc(-n4ncc(=O)[nH]c4=O)cc3Cl)n2)c1 (racemic) [Comp 22]	93
CC(c1ccc(Cl)c(C(F)(F)F)c1)(c1nc(-c2ccccc2)cs1)c1c(Cl)cc(-n2ncc(=O)[nH]c2=O)cc1Cl (racemic) [Comp 23]	83
COc1cccc(-c2csc(C(c3ccc(Cl)cc3)c3c(Cl)cc(-n4ncc(=O)[nH]c4=O)cc3Cl)n2)c1 (racemic) [Comp 24]	74
COc1ccc(Br)c(-c2csc(C(c3ccc(Cl)cc3)c3c(Cl)cc(-n4ncc(=O)[nH]c4=O)cc3Cl)n2)c1 (racemic) [Comp 25]	88
O=c1cnn(-c2cc(Cl)c(C(c3ccc(Cl)cc3)c3nc(-c4ccc(O)cc4)cs3)c(Cl)c2)c(=O)[nH]1 (racemic) [Comp 26]	85
CCOC(=O)c1csc(C(c2ccc(Cl)cc2)c2c(Cl)cc(-n3ncc(=O)[nH]c3=O)cc2Cl)n1 (racemic) [Comp 27]	64
O=c1cnn(-c2cc(Cl)c(C(c3ccc(Cl)cc3)c3nc(-c4ccc(Cl)c(Cl)c4)cs3)c(Cl)c2)c(=O)[nH]1 (racemic) [Comp 28]	73
CCOC(=O)c1sc(C(c2ccc(Cl)cc2)c2c(Cl)cc(-n3ncc(=O)[nH]c3=O)cc2Cl)nc1-c1ccccc1 (racemic) [Comp 29]	95
O=c1cnn(-c2cc(Cl)c(C(c3ccc(Cl)cc3)c3nc(-c4ccc(-c5ccccc5)cc4)cs3)c(Cl)c2)c(=O)[nH]1 (racemic) [Comp 30]	57
O=c1cnn(-c2cc(Cl)c(C(c3ccc(Cl)cc3)c3nc(-c4cccs4)cs3)c(Cl)c2)c(=O)[nH]1 (racemic) [Comp 31]	93
O=c1cnn(-c2cc(Cl)c(C(c3ccc(Cl)cc3)c3nc(-c4ccccc4Cl)cs3)c(Cl)c2)c(=O)[nH]1 (racemic) [Comp 32]	90
O=c1cnn(-c2ccc(C(O)(c3ccc(Cl)cc3)c3nc(-c4ccccc4)cs3)c(Cl)c2)c(=O)[nH]1 (racemic) [Comp 34]	58
O=c1cnn(-c2ccc(C(c3ccc(Cl)cc3)n3cncn3)c(Cl)c2)c(=O)[nH]1 (racemic) [Comp 97]	26
O=c1cnn(-c2ccc(C(c3ccc(Cl)cc3)c3nnc(-c4ccccc4)o3)c(Cl)c2)c(=O)[nH]1 (racemic) [Comp 101]	66
Cc1nnc(C(c2ccc(Cl)cc2)c2ccc(-n3ncc(=O)[nH]c3=O)cc2Cl)o1 (racemic) [Comp 102]	14
O=c1cnn(-c2ccc(C(c3ccc(Cl)cc3)c3ncc(-c4ccccc4)o3)c(Cl)c2)c(=O)[nH]1 (racemic) [Comp 103]	63
CC(c1ccc(Cl)cc1)(c1nnc(-c2ccccc2)o1)c1ccc(-n2ncc(=O)[nH]c2=O)cc1Cl (racemic) [Comp 104]	60

Compound	% inh. (percentage inhibition of IL-5 production) [%]
O=c1cnn(-c2cc(Cl)c(C(c3ccc(Cl)cc3)c3ncc(-c4ccccc4)o3)c(Cl)c2)c(=O)[nH]1 (racemic) [Comp 105]	88
CC(c1ccc(Cl)cc1)(c1nc(-c2ccccc2)no1)c1ccc(-n2ncc(=O)[nH]c2=O)cc1Cl (racemic) [Comp 106]	77
O=c1cnn(-c2ccc(C(c3ccc(Cl)cc3)c3noc(-c4ccccc4)n3)c(Cl)c2)c(=O)[nH]1 (racemic) [Comp 107]	81
Cn1ccnc1C(c1ccc(Cl)cc1)c1c(Cl)cc(-n2ncc(=O)[nH]c2=O)cc1Cl (racemic) [Comp 109]	35
CCc1sc(C(c2ccc(Cl)cc2)c2c(Cl)cc(-n3ncc(=O)[nH]c3=O)cc2Cl)nc1-c1ccccc1 (racemic) [Comp 224]	95
O=c1cnn(-c2cc(Cl)c(C(c3ccc(Cl)cc3)c3nc(Cc4ccccc4)cs3)c(Cl)c2)c(=O)[nH]1 (racemic) [Comp 225]	80
O=c1cnn(-c2cc(Cl)c(C(c3ccc(Cl)c(C(F)(F)F)c3)c3nc(-c4ccccc4)cs3)c(Cl)c2)c(=O)[nH]1 (racemic) [Comp 226]	93
CC(c1ccc(Cl)c(Cl)c1)(c1nc(-c2ccccc2)cs1)c1c(Cl)cc(-n2ncc(=O)[nH]c2=O)cc1Cl (racemic) [Comp 227]	78
CC(c1ccc(Cl)c(Cl)c1)(c1nc(-c2ccccc2)c(-c2ccccc2)s1)c1c(Cl)cc(-n2ncc(=O)[nH]c2=O)cc1Cl (racemic) [Comp 228]	81
Cc1sc(C(C)(c2ccc(Cl)c(Cl)c2)c2c(Cl)cc(-n3ncc(=O)[nH]c3=O)cc2Cl)nc1-c1ccccc1 (racemic) [Comp 233]	84
Cc1sc(C(C)(c2ccc(Cl)c(C(F)(F)F)c2)c2c(Cl)cc(-n3ncc(=O)[nH]c3=O)cc2Cl)nc1-c1ccccc1 (racemic) [Comp 234]	83
Cc1cc(C(C)(c2ccc(Cl)c(C(F)(F)F)c2)c2nc(-c3ccccc3)cs2)c(Cl)cc1-n1ncc(=O)[nH]c1=O (racemic) [Comp 235]	79
O=c1cnn(-c2cc(Cl)c(C(c3ccc(Cl)cc3)c3nc(-c4ccco4)cs3)c(Cl)c2)c(=O)[nH]1 (racemic) [Comp 236]	92
CC(c1ccc(Cl)c(C(F)(F)F)c1)(c1nc(-c2ccccc2)c(-c2ccccc2)s1)c1c(Cl)cc(-n2ncc(=O)[nH]c2=O)cc1Cl (racemic) [Comp 237]	82
Cc1cc(C(C)(c2ccc(Cl)c(C(F)(F)F)c2)c2nc(-c3ccccc3)c(C)s2)c(Cl)cc1-n1ncc(=O)[nH]c1=O (racemic) [Comp 238]	74
CC(c1ccc(Cl)c(C(F)(F)F)c1)(c1nc(-c2ccccc2)cs1)c1ccc(-n2ncc(=O)[nH]c2=O)cc1Cl (racemic) [Comp 239]	72
CN(C)Cc1csc(C(c2ccc(Cl)cc2)c2c(Cl)cc(-n3ncc(=O)[nH]c3=O)cc2Cl)n1 (racemic) [Comp 240]	54
O=c1cnn(-c2cc(Cl)c(C(c3ccc(Cl)cc3)c3nc(-c4ccccc4F)cs3)c(Cl)c2)c(=O)[nH]1 (racemic) [Comp 242]	98
Cc1ccccc1-c1csc(C(c2ccc(Cl)cc2)c2c(Cl)cc(-n3ncc(=O)[nH]c3=O)cc2Cl)n1 (racemic) [Comp 243]	97
O=c1cnn(-c2cc(Cl)c(C(c3ccc(Cl)cc3)c3nc(-c4ccccc4Br)cs3)c(Cl)c2)c(=O)[nH]1 (racemic) [Comp 244]	95
CCCc1sc(C(c2ccc(Cl)cc2)c2c(Cl)cc(-n3ncc(=O)[nH]c3=O)cc2Cl)nc1-c1ccccc1 (racemic) [Comp 245]	98
Cc1sc(C(c2ccc(Cl)c(C(F)(F)F)c2)c2c(Cl)cc(-n3ncc(=O)[nH]c3=O)cc2Cl)nc1-c1ccccc1 (racemic) [Comp 246]	94
Cc1cc(C(C)(c2nc(-c3ccccc3)cs2)c2ccc(-n3ncc(=O)[nH]c3=O)cc2Cl)ccc1Cl (racemic) [Comp 247]	80
